# Results published in patent US20140276355A1, “Co-administration of Light and a Therapeutic Agent to Stimulate Dysfunctional Mitochondria Affected By a Neurological Disorder” (MEDOS INTERNATIONAL SARL, priority 2013, published 2014).
# Tests used:
# Heixudian mutants = conditions: Drosophila Heixudian mutants; Vos et al., Science 2012; cited from earlier work
# [1] = tested on: Drosophila model for Parkinson disease; assay: Flight assay in Drosophila model for Parkinson disease; assay type: in vivo
# Procedure: Flight assays were conducted using male flies in batches of 5 flies each. Flies were placed in an empty vial (5 cm×10 cm), gently tapped and scored visually for their ability to fly. […] The combination of both treatments (e.g., Vitamin K2 and light) provided more than 50% restoration of the locomotor impairment.
structure (smiles),measurement,setting,value
CC(C)=CCC/C(C)=C/CC/C(C)=C/CC/C(C)=C/CC1=C(C)C(=O)c2ccccc2C1=O [Vitamin K2],severe mitochondria defects,Heixudian mutants,rescued
same,restoration of the locomotor impairment (flight capacity),"[1]; combination of Vitamin K2 and light (808 nm continuous laser diode, 100 s, 25 mW/cm2)",more than 50%
same,restored flight capability (animals able to fly),"[1]; systemic administration of Vitamin K2 alone, male flies, non-treated controls less than 15%",about 30%
